Laboratory results as given in publication PMC7717600, “Novel [(N-alkyl-3-indolylmethylene)hydrazono]oxindoles arrest cell cycle and induce cell apoptosis by inhibiting CDK2 and Bcl-2: synthesis, biological evaluation and in silico studies” (Journal of Enzyme Inhibition and Medicinal Chemistry, 2020).
Where two headings read alike, the source gives them in different places.

Legend:
[1] = tested on: T-47D; experiment: cells; conditions: Homo sapiens, T47D
[2] = tested on: K-562; experiment: cells; conditions: Homo sapiens
[3] = tested on: SF-268; experiment: cells; conditions: Homo sapiens
[4] = tested on: SK-MEL-5; experiment: cells; conditions: Homo sapiens
[5] = tested on: NCI-H522; conditions: for TGI: NCI-H522
[6] = tested on: OVCAR-5; experiment: cells; conditions: Homo sapiens
[7] = tested on: BT-549; experiment: cells; conditions: Homo sapiens
[8] = tested on: A549/ATCC
[9] = tested on: A549/ATCC; experiment: cells; conditions: Homo sapiens
[10] = tested on: SK-MEL-5; conditions: for TGI: SK-MEL-5
[11] = tested on: SK-MEL-28; conditions: for TGI: SK-MEL-28
[12] = tested on: SF-295; conditions: for TGI: SF-295
[13] = tested on: HCT-116; conditions: for TGI: HCT-116
[14] = tested on: MDA-MB-468; conditions: for TGI: MDA-MB-468
[15] = tested on: SNB-75; experiment: cells; conditions: Homo sapiens
[16] = tested on: DU-145; conditions: for TGI: DU-145
[17] = tested on: DU-145; experiment: cells; conditions: Homo sapiens
[18] = tested on: OVCAR-8; experiment: cells; conditions: Homo sapiens
[19] = tested on: OVCAR-5; conditions: for TGI: OVCAR-5
[20] = tested on: SK-MEL-2; experiment: cells; conditions: Homo sapiens
[21] = tested on: HOP-62; experiment: cells; conditions: Homo sapiens, HOP-62

`CCCn1cc(C=NN=C2C(=O)Nc3ccc(C)cc32)c2ccccc21` [Compound 8a] gave a GI50 ([1]; T-47D) of 0.416 µM, a CC50 ([1]; read-out: LC50) of over 100 µM and a GI50 ([2]; K562) of 2.22 µM. The CC50 ([2]; K562, read-out: LC50) was over 100 µM, the GI50 ([3]; SF-268) was 3.33 µM and the CC50 ([3]; SF-268, read-out: LC50) was over 100 µM. The GI50 ([4]; SK-MEL-5) was 2.86 µM, the CC50 ([4]; SK-MEL-5, read-out: LC50, SK-MEL-5) was 47.4 µM and the TGI [5] was 6.59 µM. The GI % ([5]; NCI-H522, 10 μM) was 86%, the “Growth Percent” value ([5]; NCI-H522, 1.00E-5 Molar) was 13.81% and the TGI ([5]; listed as D - 795311 / 1) was 6.59E-6 Molar. For the same compound, the GI50 ([6]; OVCAR-5) was 4.04 µM, the CC50 ([6]; OVCAR-5, read-out: LC50) was over 100 µM and the GI50 ([7]; BT-549) was 1.79 µM. For the same compound, the CC50 ([7]; BT-549, read-out: LC50) was over 100 µM, the TGI [8] was 39.6 µM and the GI % ([8]; 10 μM) was 36%. The “Growth Percent” value ([8]; 1.00E-5 Molar) was 63.93%, the TGI ([8]; listed as D - 795311 / 1) was 3.96E-5 Molar and the GI50 ([9]; A549) was 7.18 µM. It also gave a CC50 ([9]; A549, read-out: LC50) of over 100 µM, a TGI [10] of 13.50 µM and a GI % ([10]; SK-MEL-5, 10 μM) of 51%. The “Growth Percent” value ([10]; SK-MEL-5, 1.00E-5 Molar) was 49.07%, the TGI ([10]; listed as D - 795311 / 1) was 1.35E-5 Molar and the CC50 ([10]; human, 48 h) was 39 µM. The TGI [11] was 36.9 µM, the GI % ([11]; SK-MEL-28, 10 μM) was 41% and the “Growth Percent” value ([11]; SK-MEL-28, 1.00E-5 Molar) was 59.40%. The TGI ([11]; listed as D - 795311 / 1) was 3.69E-5 Molar, the TGI [12] was 96.6 µM and the GI % ([12]; SF-295, 10 μM) was 29%. The “Growth Percent” value ([12]; SF-295, 1.00E-5 Molar) was 71.12%, the TGI ([12]; listed as D - 795311 / 1) was 9.66E-5 Molar and the TGI [13] was 4.17 µM. The GI % ([13]; HCT-116, 10 μM) was 60%, the “Growth Percent” value ([13]; HCT-116, 1.00E-5 Molar) was 39.85% and the TGI ([13]; listed as D - 795311 / 1) was 4.17E-6 Molar. For the same compound, the CC50 ([13]; human, 48 h) was 9.96 µM, the TGI [14] was 5.78 µM and the GI % ([14]; MDA-MB-468, 10 μM) was 75%. For the same compound, the “Growth Percent” value ([14]; MDA-MB-468, 1.00E-5 Molar) was 25.19%, the TGI ([14]; listed as D - 795311 / 1) was 5.78E-6 Molar and the GI50 ([15]; SNB-75) was 2.31 µM. The CC50 ([15]; SNB-75, read-out: LC50) was over 100 µM, the TGI [16] was 40.60 µM and the GI % ([16]; DU-145, 10 μM) was 34%. The “Growth Percent” value ([16]; DU-145, 1.00E-5 Molar) was 66.43%, the TGI ([16]; listed as D - 795311 / 1) was 4.06E-5 Molar and the GI50 ([17]; DU-145) was 3.88 µM. The CC50 ([17]; DU-145, read-out: LC50) was over 100 µM, the GI50 ([18]; OVCAR-8) was 5.41 µM and the CC50 ([18]; OVCAR-8, read-out: LC50) was over 100 µM. The TGI [19] was 25.8 µM, the GI % ([19]; OVCAR-5, 10 μM) was 16% and the “Growth Percent” value ([19]; OVCAR-5, 1.00E-5 Molar) was 84.60%. For the same compound, the TGI ([19]; listed as D - 795311 / 1) was 2.58E-5 Molar, the GI50 ([20]; SK-MEL-2) was 2.42 µM and the CC50 ([20]; SK-MEL-2, read-out: LC50) was over 100 µM. The GI50 [21] was 4.17 µM.
